PubChem BioAssay (NCI)
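Following 48 hours of exposure in 96-well plates, responses at five concentrations were used to interpolate endpoints linearly. Here, GI50 denotes the concentration required for 50% inhibition of growth. TGI is the concentration that stops growth completely.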

Experiments:
Assay in all cases: NCI tumour cell line growth inhibition, 48 h
[1] = test system: RPMI-8226 leukemia
[2] = test system: CCRF-CEM leukemia
[3] = test system: SR leukemia
[4] = test system: HCT-116 colon
[5] = test system: PC-3 prostate
[6] = test system: U251 CNS
[7] = test system: SK-MEL-2 melanoma
[8] = test system: A498 renal
[9] = test system: RXF 393 renal
[10] = test system: SK-MEL-5 melanoma
[11] = test system: NCI-H23 lung
[12] = test system: HS 578T breast
[13] = test system: DU-145 prostate
[14] = test system: SK-OV-3 ovarian
[15] = test system: EKVX NSCLC
[16] = test system: K-562 leukemia
[17] = test system: OVCAR-4 ovarian
[18] = test system: OVCAR-5 ovarian
[19] = test system: ACHN renal
[20] = test system: SF-268 CNS
[21] = test system: TK-10 renal
[22] = test system: HOP-92 NSCLC
[23] = test system: HCT-15 colon
[24] = test system: MDA-MB-231 breast
[25] = test system: A549 NSCLC
[26] = test system: UACC-257 melanoma
[27] = test system: SF-295 CNS
[28] = test system: OVCAR-3 ovarian
[29] = test system: UO-31 renal
[30] = test system: HOP-62 NSCLC
[31] = test system: UACC-62 melanoma
[32] = test system: HL-60(TB) leukemia
[33] = test system: SNB-19 CNS
[34] = test system: KM12 colon
[35] = test system: NCI/ADR-RES ovarian
[36] = test system: IGROV1 ovarian
[37] = test system: MALME-3M melanoma
[38] = test system: COLO 205 colon
[39] = test system: SN12C renal
[40] = test system: HT29 colon
[41] = test system: MDA-MB-435
[42] = test system: M14 melanoma
[43] = test system: SF-539 CNS
[44] = test system: MCF7 breast
[45] = test system: 786-0 renal
[46] = test system: SNB-75 CNS
[47] = test system: CAKI-1 renal
[48] = test system: NCI-H460 lung
[49] = test system: NCI-H522 lung
[50] = test system: MOLT-4 leukemia
[51] = test system: T-47D breast
[52] = test system: OVCAR-8 ovarian
[53] = test system: NCI-H226 lung
[54] = test system: SK-MEL-28 melanoma
[55] = test system: SW-620 colon
[56] = test system: BT-549 breast
[57] = test system: HCC-2998 colon
[58] = test system: LOX IMVI melanoma

SMILES: CCOc1ccc(-c2nc3ccc(-c4nc5ccc(N6CCN(C)CC6)cc5[nH]4)cc3[nH]2)cc1OCC
- GI50 [1]: 2.94 µM
- TGI [1]: 13.8 µM
- GI50 [2]: 2.04 µM
- TGI [2]: 22.8 µM
- GI50 [3]: 0.678 µM
- TGI [3]: 7.78 µM
- GI50 [4]: 0.529 µM
- TGI [4]: 2.72 µM
- GI50 [5]: 1.42 µM
- TGI [5]: 10.4 µM
- GI50 [6]: 1.32 µM
- TGI [6]: 6.71 µM
- GI50 [7]: 1.49 µM
- TGI [7]: 3.27 µM
- GI50 [8]: 1.51 µM
- TGI [8]: 4.58 µM
- GI50 [9]: 1.14 µM
- TGI [9]: 2.49 µM
- GI50 [10]: 1.29 µM
- TGI [10]: 3.71 µM
- GI50 [11]: 1.52 µM
- TGI [11]: 4.45 µM
- GI50 [12]: 1.74 µM
- TGI [12]: 5.46 µM
- GI50 [13]: 2.37 µM
- TGI [13]: 8.1 µM
- GI50 [14]: 2.49 µM
- TGI [14]: 9.41 µM
- GI50 [15]: 5.06 µM
- TGI [15]: > 100 µM
- GI50 [16]: 0.778 µM
- TGI [16]: 9.01 µM
- GI50 [17]: 2.19 µM
- TGI [17]: 6.79 µM
- GI50 [18]: 4.37 µM
- TGI [18]: 14.2 µM
- GI50 [19]: 3.48 µM
- TGI [19]: 13.9 µM
- GI50 [20]: 1.85 µM
- TGI [20]: 6.9 µM
- GI50 [21]: 6.22 µM
- TGI [21]: 38.9 µM
- GI50 [22]: 1.35 µM
- TGI [22]: 8.73 µM
- GI50 [23]: 15 µM
- TGI [23]: > 100 µM
- GI50 [24]: 2.25 µM
- TGI [24]: 7.09 µM
- GI50 [25]: 8.34 µM
- TGI [25]: 28.5 µM
- GI50 [26]: 1.33 µM
- TGI [26]: 4.76 µM
- GI50 [27]: 1.98 µM
- TGI [27]: 16.1 µM
- GI50 [28]: 0.648 µM
- TGI [28]: 2.63 µM
- GI50 [29]: 12.4 µM
- TGI [29]: 35.9 µM
- GI50 [30]: 2.86 µM
- TGI [30]: 7.52 µM
- GI50 [31]: 0.643 µM
- TGI [31]: 2.58 µM
- GI50 [32]: 1.16 µM
- TGI [32]: 4.7 µM
- GI50 [33]: 2 µM
- TGI [33]: 11.1 µM
- GI50 [34]: 3.88 µM
- TGI [34]: 15.8 µM
- GI50 [35]: > 100 µM
- TGI [35]: > 100 µM
- GI50 [36]: 1.94 µM
- TGI [36]: 6.2 µM
- GI50 [37]: 0.222 µM
- TGI [37]: 1.23 µM
- GI50 [38]: 0.322 µM
- TGI [38]: 2 µM
- GI50 [39]: 1.94 µM
- TGI [39]: 10.9 µM
- GI50 [40]: 2.6 µM
- TGI [40]: 12.1 µM
- GI50 [41]: 1.01 µM
- TGI [41]: 2.38 µM
- GI50 [42]: 0.831 µM
- TGI [42]: 3.84 µM
- GI50 [43]: 1.2 µM
- TGI [43]: 2.71 µM
- GI50 [44]: 0.498 µM
- TGI [44]: 3.05 µM
- GI50 [45]: 2.08 µM
- TGI [45]: 5.93 µM
- GI50 [46]: 1.03 µM
- TGI [46]: 2.56 µM
- GI50 [47]: 2.71 µM
- TGI [47]: 17.6 µM
- GI50 [48]: 3.14 µM
- TGI [48]: 10.4 µM
- GI50 [49]: 1.16 µM
- TGI [49]: 3.8 µM
- GI50 [50]: 2.75 µM
- TGI [50]: 9.76 µM
- GI50 [51]: 0.946 µM
- TGI [51]: 5.57 µM
- GI50 [52]: 2.66 µM
- TGI [52]: 14.5 µM
- GI50 [53]: 1.17 µM
- TGI [53]: 4.8 µM
- GI50 [54]: 0.701 µM
- TGI [54]: 2.18 µM
- GI50 [55]: 0.796 µM
- TGI [55]: 2.89 µM

SMILES: O=c1[nH]c(-c2ccncc2)nc2sc3c(c12)CCCCCC3
- GI50 [1]: > 100 µM
- TGI [1]: > 100 µM
- GI50 [2]: > 100 µM
- TGI [2]: > 100 µM
- GI50 [5]: > 100 µM
- TGI [5]: > 100 µM
- GI50 [6]: > 100 µM
- TGI [6]: > 100 µM
- GI50 [7]: > 100 µM
- TGI [7]: > 100 µM
- GI50 [8]: > 100 µM
- TGI [8]: > 100 µM
- GI50 [9]: > 100 µM
- TGI [9]: > 100 µM
- GI50 [10]: > 100 µM
- TGI [10]: > 100 µM
- GI50 [11]: > 100 µM
- TGI [11]: > 100 µM
- GI50 [12]: > 100 µM
- TGI [12]: > 100 µM
- GI50 [13]: > 100 µM
- TGI [13]: > 100 µM
- GI50 [16]: > 100 µM
- TGI [16]: > 100 µM
- GI50 [18]: > 100 µM
- TGI [18]: > 100 µM
- GI50 [19]: > 100 µM
- TGI [19]: > 100 µM
- GI50 [20]: > 100 µM
- TGI [20]: > 100 µM
- GI50 [21]: > 100 µM
- TGI [21]: > 100 µM
- GI50 [56]: > 100 µM
- TGI [56]: > 100 µM
- GI50 [22]: > 100 µM
- TGI [22]: > 100 µM
- GI50 [57]: > 100 µM
- TGI [57]: > 100 µM
- GI50 [23]: > 100 µM
- TGI [23]: > 100 µM
- GI50 [24]: > 100 µM
- TGI [24]: > 100 µM
- GI50 [25]: > 100 µM
- TGI [25]: > 100 µM
- GI50 [26]: > 100 µM
- TGI [26]: > 100 µM
- GI50 [28]: > 100 µM
- TGI [28]: > 100 µM
- GI50 [29]: > 100 µM
- TGI [29]: > 100 µM
- GI50 [30]: > 100 µM
- TGI [30]: > 100 µM
- GI50 [31]: > 100 µM
- TGI [31]: > 100 µM
- GI50 [32]: > 100 µM
- TGI [32]: > 100 µM
- GI50 [58]: > 100 µM
- TGI [58]: > 100 µM
- GI50 [34]: > 100 µM
- TGI [34]: > 100 µM
- GI50 [36]: > 100 µM
- TGI [36]: > 100 µM
- GI50 [37]: > 100 µM
- TGI [37]: > 100 µM
- GI50 [38]: > 100 µM
- TGI [38]: > 100 µM
- GI50 [39]: > 100 µM
- TGI [39]: > 100 µM
- GI50 [40]: > 100 µM
- TGI [40]: > 100 µM
- GI50 [41]: > 100 µM
- TGI [41]: > 100 µM
- GI50 [42]: > 100 µM
- TGI [42]: > 100 µM
- GI50 [43]: > 100 µM
- TGI [43]: > 100 µM
- GI50 [44]: > 100 µM
- TGI [44]: > 100 µM
- GI50 [45]: > 100 µM
- TGI [45]: > 100 µM
- GI50 [46]: 2.71 µM
- TGI [46]: > 100 µM
- GI50 [47]: > 100 µM
- TGI [47]: > 100 µM
- GI50 [48]: > 100 µM
- TGI [48]: > 100 µM
- GI50 [49]: > 100 µM
- TGI [49]: > 100 µM
- GI50 [50]: > 100 µM
- TGI [50]: > 100 µM
- GI50 [52]: > 100 µM
- TGI [52]: > 100 µM
- GI50 [53]: > 100 µM
- TGI [53]: > 100 µM
- GI50 [54]: > 100 µM
- TGI [54]: > 100 µM
- GI50 [55]: > 100 µM
- TGI [55]: > 100 µM
